Read-outs that look alike come from different tables or passages of the source.
Assays:
[1] = Whole blood stability, human
Description: (§1) Procedures for blood Stability. • A. 398 μL of blood from each species was added to an incubation plate, which was pre-warmed at 37C for 15 minutes. • B. After the pre-incubation, 2 μL of working solution (test compounds or control compounds) was spiked to 398 μL of blood to reach a final concentration of 1 μM for test compounds and 5 μM for control compounds. The final concentration of organic solvents is 0.5%. The assays were performed in duplicate. • C. The reaction samples were incubated at 37C. • D. Aliquots of 50 μL were taken from the reaction samples at 0, 15, 30, 60 and 120 minutes. The reaction was stopped by the addition of 50 μL ultrapure water and 400 μL cold acetonitrile. • E. All samples were vortexed for 10 minutes, followed by centrifugation at 3,220 g for 40 minutes to precipitate proteins. 100 μL of the supernatant was then transferred to a new plate. The supernatant was diluted with ultrapure water as needed for detection by LC-MS/MS. Sample Analysis
(§2) Samples were analyzed by LC-MS/MS to measure the concentration of the test compounds.
(§3) All calculations were carried out using Microsoft Excel and according to standard analysis methods that are known in the art.

[2] = Liver microsome stability, rat; conditions: for CLint scaled at 1 μM / microsomal CLint at 1 μM / half-life at 1 μM: liver microsomes; for CLint scaled at 1 μM: Scale-up CLint; for microsomal CLint at 1 μM: in vitro CLint; for half-life at 1 μM: in vitro t1/2, rat liver microsomes
Description: (§4) For the liver microsome assay: • 1. The master solution was prepared according to Table 3. All liver microsome samples were purchased from BD Gentest.
(§5) • 2. Two separate experiments were performed as follows: (i) With Cofactors (NADPH): 25 μL of 10 mM NADPH was added to the incubations. […] The reaction was started with the addition of 2.5 μL of 100 μM control compound or test compound solutions. […] Aliquots of 30 μL were taken from the reaction solution at 0.5, 5, 15, 30 and 60 minutes. The reaction was stopped by the addition of 5 volumes of cold acetonitrile with IS (100 nM alprazolam, 200 nM caffeine and 100 nM tolbutamide). Samples were centrifuged at 3,220 g for 40 minutes. Aliquots of 100 μL of the supernatant was mixed with 100 μL of ultra-pure H2O and then used for LC-MS/MS analysis to detect the levels of the test compound. • 5. All calculations were carried out using Microsoft Excel and according to standard analysis methods that are known in the art.

[3] = Hepatocyte stability, dog
Description: • 1. 10 mM stock solutions of test compounds and positive control compound were prepared in appropriate solvent (DMSO). • 2. In separate conical tubes, 10 mM test compound and positive controls were diluted to 100 μM by combining 198 μL of 50% acetonitrile/50% water and 2 μL of 10 mM stock. Preparation of Hepatocytes • 1. Incubation medium (William's E Medium supplemented with GlutaMAX) and hepatocyte thawing medium were placed in a 37C water bath and warmed for at least 15 minutes prior to use. • 2. A vial of cryopreserved hepatocytes was thawed by placing the vial in a 37C water bath and gently shaken for 2 minutes. After thawing was completed, the vial was cleaned with 70% ethanol and transferred to a biosafety cabinet. • 3. Using wide-bore pipette tips, hepatocytes were transferred into a 50 mL conical tube containing thawing medium. The 50 mL conical tube was placed into a centrifuge and spun at 100 g for 10 minutes. […] Using AO/PI Staining, cells were counted to determine the viable cell density. Cells were diluted with incubation medium to a working cell density of 0.5×10^6 viable cells/mL. Procedure for Stability Determination • 1. 198 μL of hepatocytes were pipetted into each well of a 96-well non-coated plate. The plate was placed in the incubator to allow the hepatocytes to warm for 10 minutes. • 2. 2 μL of the 100 μM test compound or positive control was pipetted into respective wells of the 96-well non-coated plate to start the reaction. The plate was returned to the incubator for the designed time points. • 3. The contents of the wells were removed in 25 μL aliquots at time points of 0.5, 15, 30, 60, 90 and 120 minutes. The aliquots were then mixed with 6 volumes (150 μL) of acetonitrile containing an internal standard, IS (100 nM alprazolam, 200 nM caffeine and 100 nM tolbutamide), to terminate the reaction. Samples were vortexed for 5 minutes and centrifuged for 45 minutes at 3,220 g. Aliquots of 100 μL of supernatant were diluted with 100 μL ultra-pure water, and the mixture was used for LC/MS/MS analysis. All incubations were performed in duplicate. Data Analysis
as §3

[4] = Whole blood stability, dog
Description: as §1, §2, §3

[5] = Liver microsome stability, human; conditions: for CLint scaled at 1 μM / microsomal CLint at 1 μM / half-life at 1 μM: liver microsomes; for CLint scaled at 1 μM: Scale-up CLint; for microsomal CLint at 1 μM: in vitro CLint; for half-life at 1 μM: in vitro t1/2, human liver microsomes
Description: as §4, §5

[6] = Liver microsome stability, dog; conditions: for CLint scaled at 1 μM / microsomal CLint at 1 μM / half-life at 1 μM: liver microsomes; for CLint scaled at 1 μM: Scale-up CLint; for microsomal CLint at 1 μM: in vitro CLint; for half-life at 1 μM: in vitro t1/2, dog liver microsomes
Description: as §4, §5

[7] = target: M2 (h) (antagonist radioligand) (Homo sapiens, UniProt P08172); conditions: at the tested concentration; negative values set to zero
CYP2E1 = CYP2E1 (Homo sapiens, UniProt P05181); experiment: Incubation with recombinant CYP2E1; conditions: for t1/2: unit not given
[8] = target: D2L (h) (antagonist radioligand) (Homo sapiens, UniProt P14416); conditions: at the tested concentration; negative values set to zero
[9] = target: kappa (h) (KOP) (agonist radioligand) (Homo sapiens, UniProt P41145); conditions: at the tested concentration, negative values set to zero
CYP2C9 = CYP2C9 (Homo sapiens, UniProt P11712); experiment: Incubation with recombinant CYP2C9; conditions: for t1/2: unit not given
CYP3A5 = CYP3A5 (Homo sapiens, UniProt P20815); experiment: Incubation with recombinant CYP3A5
[10] = rat, rat liver microsomes, Example 15, Table 20
[11] = human, human liver microsomes, Example 15, Table 20
[12] = dog, dog liver microsomes, Example 15, Table 20

Sequence of kappa (h) (KOP) (agonist radioligand) (P41145 whole entry): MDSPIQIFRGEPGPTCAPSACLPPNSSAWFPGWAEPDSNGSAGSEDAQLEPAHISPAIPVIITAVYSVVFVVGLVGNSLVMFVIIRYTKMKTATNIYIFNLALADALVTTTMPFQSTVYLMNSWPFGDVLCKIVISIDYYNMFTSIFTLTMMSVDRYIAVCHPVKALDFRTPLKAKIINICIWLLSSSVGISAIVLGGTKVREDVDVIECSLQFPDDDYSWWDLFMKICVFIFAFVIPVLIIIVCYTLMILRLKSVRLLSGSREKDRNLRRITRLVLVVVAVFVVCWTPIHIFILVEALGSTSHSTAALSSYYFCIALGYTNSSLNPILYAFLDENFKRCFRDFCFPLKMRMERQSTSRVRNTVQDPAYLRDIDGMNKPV
Sequence of CYP2E1 (P05181 whole entry): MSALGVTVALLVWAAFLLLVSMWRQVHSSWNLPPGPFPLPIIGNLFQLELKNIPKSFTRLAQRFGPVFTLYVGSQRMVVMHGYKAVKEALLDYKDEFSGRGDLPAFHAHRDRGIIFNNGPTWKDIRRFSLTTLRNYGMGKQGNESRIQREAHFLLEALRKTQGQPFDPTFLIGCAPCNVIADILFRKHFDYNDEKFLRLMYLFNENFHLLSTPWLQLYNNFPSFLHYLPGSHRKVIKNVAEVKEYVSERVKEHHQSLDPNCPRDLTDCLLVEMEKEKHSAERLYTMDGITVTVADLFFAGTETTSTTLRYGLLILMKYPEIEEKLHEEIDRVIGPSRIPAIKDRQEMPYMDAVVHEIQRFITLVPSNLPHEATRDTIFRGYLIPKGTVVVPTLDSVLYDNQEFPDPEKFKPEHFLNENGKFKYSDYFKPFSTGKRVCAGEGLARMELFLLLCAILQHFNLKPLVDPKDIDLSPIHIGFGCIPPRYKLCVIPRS
Sequence of CYP2C9 (P11712 whole entry): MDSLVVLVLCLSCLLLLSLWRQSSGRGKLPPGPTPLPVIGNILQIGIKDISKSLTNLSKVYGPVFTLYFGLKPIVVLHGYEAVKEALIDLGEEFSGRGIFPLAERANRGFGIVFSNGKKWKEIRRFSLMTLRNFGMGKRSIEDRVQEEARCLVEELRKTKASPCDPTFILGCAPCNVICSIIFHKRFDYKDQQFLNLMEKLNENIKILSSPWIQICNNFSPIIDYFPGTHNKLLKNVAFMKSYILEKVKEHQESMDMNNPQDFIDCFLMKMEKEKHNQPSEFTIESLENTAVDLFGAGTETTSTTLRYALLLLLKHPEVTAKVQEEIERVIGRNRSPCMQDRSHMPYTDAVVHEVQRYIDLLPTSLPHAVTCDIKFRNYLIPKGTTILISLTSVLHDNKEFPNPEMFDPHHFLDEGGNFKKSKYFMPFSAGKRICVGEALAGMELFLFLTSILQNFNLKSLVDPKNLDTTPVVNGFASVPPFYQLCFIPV
Sequence of CYP3A5 (P20815 whole entry): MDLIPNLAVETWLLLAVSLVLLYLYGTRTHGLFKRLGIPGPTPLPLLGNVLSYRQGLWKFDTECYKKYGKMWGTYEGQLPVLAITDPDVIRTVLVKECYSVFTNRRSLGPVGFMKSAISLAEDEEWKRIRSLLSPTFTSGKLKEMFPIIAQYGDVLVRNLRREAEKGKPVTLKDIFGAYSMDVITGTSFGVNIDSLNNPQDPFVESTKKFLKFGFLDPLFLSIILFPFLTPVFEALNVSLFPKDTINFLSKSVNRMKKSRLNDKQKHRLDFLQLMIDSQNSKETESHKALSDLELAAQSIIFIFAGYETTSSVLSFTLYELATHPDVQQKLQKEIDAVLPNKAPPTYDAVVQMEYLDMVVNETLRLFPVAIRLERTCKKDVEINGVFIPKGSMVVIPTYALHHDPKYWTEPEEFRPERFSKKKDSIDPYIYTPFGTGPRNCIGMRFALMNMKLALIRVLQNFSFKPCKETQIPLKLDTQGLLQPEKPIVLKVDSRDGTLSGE
Sequence of M2 (h) (antagonist radioligand) (P08172 whole entry): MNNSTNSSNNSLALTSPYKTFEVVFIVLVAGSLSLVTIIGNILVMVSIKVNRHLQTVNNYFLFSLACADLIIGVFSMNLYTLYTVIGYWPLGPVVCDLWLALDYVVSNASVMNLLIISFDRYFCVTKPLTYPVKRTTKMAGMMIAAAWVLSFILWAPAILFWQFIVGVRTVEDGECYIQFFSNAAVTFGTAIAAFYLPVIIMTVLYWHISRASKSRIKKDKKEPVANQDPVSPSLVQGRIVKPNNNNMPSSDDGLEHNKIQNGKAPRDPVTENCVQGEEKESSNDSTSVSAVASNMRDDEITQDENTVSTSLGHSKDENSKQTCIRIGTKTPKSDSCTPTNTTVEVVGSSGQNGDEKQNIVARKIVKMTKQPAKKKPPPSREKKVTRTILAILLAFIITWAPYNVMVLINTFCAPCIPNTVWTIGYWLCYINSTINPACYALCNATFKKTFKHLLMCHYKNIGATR
Sequence of D2L (h) (antagonist radioligand) (P14416 whole entry): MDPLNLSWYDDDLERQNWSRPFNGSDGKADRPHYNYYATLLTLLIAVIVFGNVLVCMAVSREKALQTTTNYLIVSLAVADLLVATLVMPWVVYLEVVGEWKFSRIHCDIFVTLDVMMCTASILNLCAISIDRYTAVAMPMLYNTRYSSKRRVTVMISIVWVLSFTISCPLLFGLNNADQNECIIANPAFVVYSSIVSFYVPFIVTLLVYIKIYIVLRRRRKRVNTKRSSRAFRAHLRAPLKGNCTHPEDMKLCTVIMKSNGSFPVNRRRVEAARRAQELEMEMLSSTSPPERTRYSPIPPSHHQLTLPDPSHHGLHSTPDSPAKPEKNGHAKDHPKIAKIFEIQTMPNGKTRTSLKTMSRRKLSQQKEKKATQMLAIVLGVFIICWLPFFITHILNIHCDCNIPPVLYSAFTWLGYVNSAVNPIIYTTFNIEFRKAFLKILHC

Row | Remaining Percentages (%) 0 min ([1]; human whole blood, 37C) | Remaining Percentages (%) 0 min ([4]; dog whole blood, 37C) | signal, M2 (h) (antagonist radioligand) [7] | CLint scaled at 1 μM [2, 10] | microsomal CLint at 1 μM [2, 10] | half-life at 1 μM ([2]; rat, Example 15, Table 20) | CLint scaled at 1 μM [5, 11] | microsomal CLint at 1 μM [5, 11] | half-life at 1 μM ([5]; human, Example 15, Table 20) | CLint (CYP2E1) | t1/2 (CYP2E1) | CLint scaled at 1 μM [6, 12] | microsomal CLint at 1 μM [6, 12] | half-life at 1 μM ([6]; dog, Example 15, Table 20) | signal, D2L (h) (antagonist radioligand) [8] | signal, kappa (h) (KOP) (agonist radioligand) [9] | CLint (CYP2C9) | t1/2 (CYP2C9) | Substrates of CYP3A5 (CYP3A5) | SMILES | further results
1 | 100.00% | 100.00% | – | – | – | – | – | – | – | – | – | – | – | – | – | – | – | – | – | C[C@@H](C[N+](C)(C)C)OC(N)=O.[Cl-] [(S)-BTC, (S)-bethanechol] | t1/2 ([1]; human, blood): ∞; Predicted Hepatic CLH ([2]; rat liver microsomes, Table 5): 0.00 mL/min/kg; in vitro t1/2 ([2]; rat, microsomes): ∞; Predicted Hepatic CLH ([3]; hepatocytes): 0 mL/min/kg; in vitro t1/2 ([3]; hepatocytes): ∞; t1/2 ([4]; dog, blood): ∞; Predicted Hepatic CLH ([5]; human liver microsomes, Table 5): 0.00 mL/min/kg; in vitro t1/2 ([5]; human, microsomes): ∞; Predicted Hepatic CLH ([6]; dog liver microsomes, Table 5): 0.00 mL/min/kg; in vitro t1/2 ([6]; dog, microsomes): ∞
2 | – | – | 77.76% | 1870 mL/min/kg | 768 µL/min/mg | 1.8 min | 58.9 mL/min/kg | 57.3 µL/min/mg | 24.2 min | 0.00 µL/min/pmol | ∞ | 429 mL/min/kg | 244 µL/min/mg | 5.72 min | 28.50% | 34.64% | 0.00 µL/min/pmol | ∞ | Rac, R and S | O[C@](CCN1CCCCC1)(c1ccccc1)C1CCCCC1 [(S)-THP, (S)-trihexyphenidyl] | half-life (CYP3A5; human): 48.7 min
3 | 100.00% | 100.00% | 98.95% | 5330 mL/min/kg | 2190 µL/min/mg | 0.63 min | 20.4 mL/min/kg | 19.9 µL/min/mg | 69.7 min | 0.00 µL/min/pmol | ∞ | 318 mL/min/kg | 180 µL/min/mg | 7.69 min | 0.32% | greater than 25% | 0.00 µL/min/pmol | ∞ | Rac, R and S | O[C@@](CCN1CCCCC1)(c1ccccc1)C1CCCCC1 [(R)-THP, (R)-trihexyphenidyl] | t1/2 ([1]; human whole blood, 37C): ∞; CLint scaled at 1 μM ([2]; rat, rat liver microsomes, Table 5): 5810 mL/min/kg; microsomal CLint at 1 μM ([2]; rat, rat liver microsomes, with NADPH, Table 5): 2380 µL/min/mg; half-life at 1 μM ([2]; rat, with NADPH, 1 μM, Table 5): 0.58 min; CLint scaled at 1 μM ([3]; cryopreserved hepatocytes): 187 mL/min/kg; half-life at 1 μM ([3]; cryopreserved hepatocytes): 40.2 min; hepatocyte CLint at 1 μM ([3]; cryopreserved hepatocytes): 34.5 µL/min/1e6 cells; t1/2 ([4]; dog whole blood, 37C): ∞; CLint scaled at 1 μM ([5]; human, human liver microsomes, Table 5): 21.8 mL/min/kg; microsomal CLint at 1 μM ([5]; human, human liver microsomes, with NADPH, Table 5): 21.2 µL/min/mg; half-life at 1 μM ([5]; human, with NADPH, 1 μM, Table 5): 65.8 min; CLint scaled at 1 μM ([6]; dog, dog liver microsomes, Table 5): 257 mL/min/kg; microsomal CLint at 1 μM ([6]; dog, dog liver microsomes, with NADPH, Table 5): 146 µL/min/mg; half-life at 1 μM ([6]; dog, with NADPH, 1 μM, Table 5): 9.51 min; signal, kappa (h) (KOP) (agonist radioligand) ([9]; listed as R-THP): 26.19%

From patent US12290513B2, “Therapeutic methods and compositions for treating movement disorders” (Vima Therapeutics, Inc., priority 2023, dated 2025)
